This is an account of results in patent US8877927B2 (Grunenthal GmbH, priority 2006, dated 2014).

Data set [1] in a line: Rat pharmacokinetics (oral bioavailability, clearance). The data set is classed as in vivo. Conditions: for reduction in clearance: compared to prior art compound 42; for clearance / bioavailability: in vivo; for bioavailability: oral, read-out: Rat Oral Bioavailability (% F).
Data set [2] can be described thus: Plasma incubations (rat plasma stability). The data set is classed as in vitro ADME. The conditions noted are these: 25 μM, 37° C., percent remaining at 1 hour.
Procedure: (§1) Human and rat plasma were purchased from Innovative Research Inc. (Southfield. Mich., USA). […] Aliquots were removed at 2 and 60 minutes and quenched with an equal volume of cold acetonitrile. After mixing vigorously, the precipitated protein matter was removed by filtration (Multiscreen Solvinert filter plates, Millipore, Bedford, Mass., USA) and the filtrate analysed by reverse phase HPLC with mass spectrometric detection, using single ion monitoring of the [M+H]^+ species. Metabolic turnover was determined by comparison of peak areas from the ion chromatograms of the parent compound at 2 and 60 minutes and expressed as percent remaining at 1 hour.
Data set [3] concerns the target T1, Human recombinant cathepsin K (Homo sapiens, UniProt P43235).
T1 construct: purchased B. Turk, Josef, Stefan Institute, Ljubljana, Slovenia
T1 sequence (P43235 115-329): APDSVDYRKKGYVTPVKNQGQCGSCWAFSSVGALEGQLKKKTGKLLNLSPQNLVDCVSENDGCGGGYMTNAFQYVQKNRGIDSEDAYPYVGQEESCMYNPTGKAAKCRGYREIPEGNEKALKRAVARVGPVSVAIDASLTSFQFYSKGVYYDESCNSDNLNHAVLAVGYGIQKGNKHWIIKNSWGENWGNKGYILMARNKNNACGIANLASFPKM
As to the kind of experiment: In vitro cathepsin K Ki inhibition measurement. The data set is classed as biochemical. The conditions noted are these: for Ki: recombinant human cathepsin K, read-out: In vitro Ki (nM) vs Cath K. On the procedure: Stock solutions of substrate or inhibitor were made up to 10 mM in 100% dimethylsulfoxide (DMSO) (Rathbums, Glasgow, U.K.) and diluted as appropriately required. In all cases the DMSO concentration in the assays was maintained at less than 1% (vol./vol.). The equilibrium inhibition constants (Ki^ss) for each compound were measured under steady-state conditions monitoring enzyme activity as a function of inhibitor concentration. The values were calculated on the assumption of pure competitive behaviour (Cornish-Bowden, A. Fundamentals of enzyme kinetics Portland Press; 1995, 93-128.). Human recombinant cathepsin K (0.25 nM final; B. Turk, Josef, Stefan Institute, Ljubljana, Slovenia), was routinely assayed in 100 mM sodium acetate; pH 5.5 containing 1 mM EDTA, 10 mM L-cysteine and 1.8 μM Z-Leu-Arg-AMC ([S]═KM).
The apparent inhibition constant (Ki) for each compound was determined on the basis that inhibition was reversible and occurred by a pure-competitive mechanism. The Ki values were calculated, from the dependence of enzyme activity as a function of inhibitor concentration, by direct regression analysis (Prism v 3.02) using Equation 2 (Cornish-Bowden, A., 1995.).
In situations where the apparent dissociation constant (Ki^app) approached the enzyme concentrations, the Ki^app values were calculated using a quadratic solution in the form described by Equation 3 (Morrison, J. F. Trends Biochem. Sci., 7, 102-105, 1982; Morrison, J. F. Biochim. Biophys. Acta, 185, 269-286, 1969; Stone, S. R. and Hofsteenge, J. Biochemistry, 25, 4622-4628, 1986).
In Equation 3 ‘vi’ is the observed residual activity, ‘F’ is the difference between the maximum activity (i.e. in the absence of inhibitor) and minimum enzyme activity, ‘Eo’ is the total enzyme concentration, ‘Ki^app’ is the apparent dissociation constant and ‘Io’ is the inhibitor concentration. Curves were fitted by non-linear regression analysis (Prism) using a fixed value for the enzyme concentration. Equation 4 was used to account for the substrate kinetics, where ‘Ki’ is the inhibition constant, ‘[So]’ is the initial substrate concentration and ‘KM^app’ is the apparent macroscopic binding (Michaelis) constant for the substrate (Morrison, 1982).

Data set [4] can be described thus: Plasma incubations (human plasma stability). The data set is classed as in vitro ADME. The conditions noted are these: 25 μM, 37° C., percent remaining at 1 hour.
Procedure: as §1
Data set [5] can be described thus: Liver microsomal incubations (HLM). The data set is classed as in vitro ADME. Conditions: human liver microsomes 0.5 mg/mL, 25 μM, NADPH, percent remaining at 1 hour. In general terms: Liver microsomes are a subcellular fraction often used to study metabolism.
Procedure: (§2) Human and rat liver microsomes were purchased from BD Gentest (Woburn, Mass., USA) and β-nicotinamide adenine dinucleotide 2′-phosphate reduced tetrasodium salt (NADPH) was purchased from Sigma-Aldrich (Poole, Dorset, UK). All liver microsome incubations were carried out in 50 mM potassium phosphate buffer at pH 7.4, with a final microsomal protein concentration of 0.5 mg/mL. […] In brief, compounds were added to the incubation buffer along with the liver microsomes and incubated at 37° C. for 10 minutes. The reaction was then initiated by the addition of NADPH, previously dissolved in incubation buffer, to give a final concentration of 1 mM and re-incubated at 37° C. Aliquots were removed at 2 and 60 minutes and quenched with an equal volume of cold acetonitrile. After mixing vigorously, the precipitated protein matter was removed by filtration (Multiscreen Solvinert filter plates, Millipore, Bedford, Mass., USA) and the filtrate analysed by reverse phase HPLC with mass spectrometric detection, using single ion monitoring of the [M+H]^+ species. Metabolic turnover was determined by comparison of peak areas from the ion chromatograms of the parent compound at 2 and 60 minutes and expressed as percent remaining at 1 hour.
Data set [6] can be described thus: Liver microsomal incubations (RLM). It counts as in vitro ADME. The conditions noted are these: rat liver microsomes 0.5 mg/mL, 25 μM, NADPH, percent remaining at 1 hour.
Procedure: as §2
[7] abbreviates: compared to prior art compound 42.
Setting [8] is: compared to prior art compound 11.

On to `CN1CCN(c2ccc(C(=O)N[C@H](C(=O)N3CC(F)[C@H]4OCC(=O)[C@H]43)C3CCCCC3)cc2)CC1` (stereo in doubt) [Example 2, N—((S)-1-cyclohexyl-2-((3aS,6S,6aS)-6-fluoro-3-oxodihydro-2H-furo[3,2-b]pyrrol-4(5H,6H,6aH)-yl)-2-oxoethyl)-4-(4-methylpiperazin-1-yl)benzamide], for which, in data set [1], the reduction in clearance is listed as 68%, the clearance was found to be 25 mL/min/kg and the bioavailability was 80%. The “Rat Plasma Stability % rem. @ 1 h” value in data set [2] worked out at 100%. Further, the Ki in data set [3] was found to be 14.9 nM. Further, the “Human Plasma Stability % rem. @ 1 h” value in data set [4] is on record as 93.1%. Moreover, the “HLM % rem. @ 1 hr” value in data set [5] worked out at 98.2%. Also, in data set [6], the “RLM % rem. @ 1 hr” value stood at 73.3%.

Regarding `CN1CCN(c2ccc(C(=O)N[C@H](C(=O)N3CC(Cl)[C@H]4OCC(=O)[C@H]43)C3CCCC3)cc2)CC1` (stereo in doubt) [Example 5, N—((S)-2-((3aS,6S,6aS)-6-chloro-3-oxodihydro-2H-furo[3,2-b]pyrrol-4(5H,6H,6aH)-yl)-1-cyclopentyl-2-oxoethyl)-4-(4-methylpiperazin-1-yl)benzamide], in data set [1], the clearance came to 107 mL/min/kg and the bioavailability was found to be 37%. Moreover, the “Rat Plasma Stability % rem. @ 1 h” value in data set [2] is reported as 96.6%. In data set [3] (setting [7]), the “improvement in in vitro potency against recombinant human cathepsin K” value (shortened to “improvement in in vitro potency”) stood at 17 fold. In addition, the “increase in in vitro potency against recombinant human cathepsin K” value in data set [3] (compared to the direct (S)-leucine analogue (14)) is given as 3.5 fold. In data set [3], the inhibition constant Ki was 0.5 nM. For the same molecule, the “Human Plasma Stability % rem. @ 1 h” value in data set [4] stood at 97.4%. Moreover, the “HLM % rem. @ 1 hr” value in data set [5] is 85.6%. The “RLM % rem. @ 1 hr” value in data set [6] is listed as 81.3%.

`CN1CCN(c2ccc(C(=O)N[C@H](C(=O)N3C[C@H](F)[C@H]4OCC(=O)[C@H]43)C3CCCC3)cc2)CC1` [Example 1, N—((S)-1-cyclopentyl-2-((3aS,6S,6aS)-6-fluoro-3-oxodihydro-2H-furo[3,2-b]pyrrol-4(5H,6H,6aH)-yl)-2-oxoethyl)-4-(4-methylpiperazin-1-yl)benzamide]: in data set [1], the reduction in clearance came to 71%, the clearance was 23 mL/min/kg and the bioavailability was 88%. Besides, the “Rat Plasma Stability % rem. @ 1 h” value in data set [2] is on record as 95.9%. Also, in data set [3] (setting [7]), the “improvement in in vitro potency” value came out at 5 fold. Moreover, in data set [3], the Ki stood at 1.7 nM. In data set [4], the “Human Plasma Stability % rem. @ 1 h” value was 96.4%. In addition, the “HLM % rem. @ 1 hr” value in data set [5] was found to be 100%. Further, in data set [6], the “RLM % rem. @ 1 hr” value was determined as 82%.

Turning to `CN1CCN(c2nc(-c3ccc(C(=O)N[C@H](C(=O)N4C[C@@H](F)[C@H]5OCC(=O)[C@H]54)C4CCCC4)cc3)cs2)CC1` [Example 7], the “Rat Plasma Stability % rem. @ 1 h” value in data set [2] turned out to be 88%. Besides, in data set [3], the inhibition constant (Ki) was determined as 0.9 nM. Also, the “Human Plasma Stability % rem. @ 1 h” value in data set [4] stood at 96.3%. For the same molecule, the “HLM % rem. @ 1 hr” value in data set [5] stood at 74%. For the same molecule, the “RLM % rem. @ 1 hr” value in data set [6] turned out to be 3.5%.

For the molecule `CN1CCN(c2nc(-c3ccc(C(=O)N[C@H](C(=O)N4C[C@@H](Cl)[C@H]5OCC(=O)[C@H]54)C4CCCC4)cc3)cs2)CC1` [Example 8], in data set [2], the “Rat Plasma Stability % rem. @ 1 h” value turned out to be 85.1%. Also, the inhibition constant Ki in data set [3] came out at 0.3 nM. Besides, the “Human Plasma Stability % rem. @ 1 h” value in data set [4] was 96%. Besides, in data set [5], the “HLM % rem. @ 1 hr” value is listed as 54.1%. The “RLM % rem. @ 1 hr” value in data set [6] was 7.7%.

Turning to `CC(C)C[C@H](NC(=O)c1ccc(-c2csc(N3CCN(C)CC3)n2)cc1)C(=O)N1C[C@@H](F)[C@H]2OCC(=O)[C@H]21` [prior art compound 8.19], the “Rat Plasma Stability % rem. @ 1 h” value in data set [2] was found to be 90.2%. Further, the “improvement in in vitro potency” value in data set [3] (setting [8]) is recorded as “only minor improvement”. Also, the Ki in data set [3] came to 1.5 nM. In data set [4], the “Human Plasma Stability % rem. @ 1 h” value is 70.2%. Moreover, in data set [5], the “HLM % rem. @ 1 hr” value came out at 66.7%. For the same molecule, in data set [6], the “RLM % rem. @ 1 hr” value amounted to 4.4%.

On to `CC(C)C[C@H](NC(=O)c1ccc(N2CCN(C)CC2)cc1)C(=O)N1C[C@@H](F)[C@H]2OCC(=O)[C@H]21` [prior art compound 10], for which, in data set [1], the reduction in clearance result is given as “no effect”, the clearance was found to be 81 mL/min/kg and the bioavailability came out at 40%. Moreover, the “Rat Plasma Stability % rem. @ 1 h” value in data set [2] is 94.2%. In data set [3] (setting [7]), the “improvement in in vitro potency” value came out at 2.4 fold. In addition, in data set [3], the Ki stood at 3.6 nM. In addition, the “Human Plasma Stability % rem. @ 1 h” value in data set [4] amounted to 100%. Moreover, the “HLM % rem. @ 1 hr” value in data set [5] was found to be 96.8%. In addition, the “RLM % rem. @ 1 hr” value in data set [6] is on record as 93.6%.

As for `CC(C)C[C@H](NC(=O)c1ccc(-c2csc(N3CCN(C)CC3)n2)cc1)C(=O)N1CC[C@H]2OCC(=O)[C@H]21` [prior art compound 11], the “Rat Plasma Stability % rem. @ 1 h” value in data set [2] was determined as 88.6%. In data set [4], the “Human Plasma Stability % rem. @ 1 h” value is on record as 92.6%. The “HLM % rem. @ 1 hr” value in data set [5] was determined as 82.6%. For the same molecule, in data set [6], the “RLM % rem. @ 1 hr” value worked out at 4.8%.

`CN1CCN(c2ccc(C(=O)N[C@H](C(=O)N3CC[C@H]4OCC(=O)[C@H]43)C3CCCC3)cc2)CC1` [prior art compound 12]: in data set [1], the reduction in clearance is listed as 29%, the clearance is 56 mL/min/kg and the bioavailability turned out to be 45%. In data set [2], the “Rat Plasma Stability % rem. @ 1 h” value came to 94.1%. Also, the “improvement in in vitro potency” value in data set [3] (setting [7]) came out at 5 fold. The Ki in data set [3] came to 1.8 nM. Moreover, the “Human Plasma Stability % rem. @ 1 h” value in data set [4] is on record as 97.2%. The “HLM % rem. @ 1 hr” value in data set [5] is given as 91.2%. For the same molecule, the “RLM % rem. @ 1 hr” value in data set [6] was found to be 93.9%.

In the case of `CN1CCN(c2nc(-c3ccc(C(=O)N[C@H](C(=O)N4CC[C@H]5OCC(=O)[C@H]54)C4CCCC4)cc3)cs2)CC1` [prior art compound 13], the “Rat Plasma Stability % rem. @ 1 h” value in data set [2] is 93%. Moreover, in data set [3] (setting [8]), the “improvement in in vitro potency” value is recorded as “only minor improvement”. For the same molecule, in data set [4], the “Human Plasma Stability % rem. @ 1 h” value is given as 82.5%. Moreover, the “HLM % rem. @ 1 hr” value in data set [5] came to 79.4%. In addition, the “RLM % rem. @ 1 hr” value in data set [6] worked out at 4.3%.

Consider `CC(C)C[C@H](NC(=O)c1ccc(N2CCN(C)CC2)cc1)C(=O)N1C[C@@H](Cl)[C@H]2OCC(=O)[C@H]21` [prior art compound 14], for which the “Rat Plasma Stability % rem. @ 1 h” value in data set [2] (listed as drawing 58) came out at 92.8%. For the same molecule, the inhibitory constant (Ki) in data set [3] came to 1.8 nM. For the same molecule, the “Human Plasma Stability % rem. @ 1 h” value in data set [4] (listed as drawing 58) amounted to 85.5%. In addition, the “HLM % rem. @ 1 hr” value in data set [5] (listed as drawing 58) was found to be 84.8%. The “RLM % rem. @ 1 hr” value in data set [6] (listed as drawing 58) was determined as 85.5%.

Consider `CC(C)C[C@H](NC(=O)c1ccc(N2CCN(C)CC2)cc1)C(=O)N1C[C@@H](Cl)[C@H]2OCC(=O)[C@H]21` [prior art compound 15], for which the “Rat Plasma Stability % rem. @ 1 h” value in data set [2] (listed as drawing 59) was found to be 88.9%. Further, the inhibition constant Ki in data set [3] was determined as 3.7 nM. In data set [4] (listed as drawing 59), the “Human Plasma Stability % rem. @ 1 h” value amounted to 90.3%. Further, in data set [5] (listed as drawing 59), the “HLM % rem. @ 1 hr” value came out at 80.3%. Also, in data set [6] (listed as drawing 59), the “RLM % rem. @ 1 hr” value was determined as 81.6%.

Regarding `CC(C)C[C@H](NC(=O)c1ccc(N2CCN(C)CC2)cc1)C(=O)N1CC[C@H]2OCC(=O)[C@H]21` [prior art compound 42], in data set [1], the clearance was found to be 79 mL/min/kg and the bioavailability was 31.5%. In data set [2], the “Rat Plasma Stability % rem. @ 1 h” value is on record as 84.2%. Moreover, the “Human Plasma Stability % rem. @ 1 h” value in data set [4] worked out at 95%. Further, the “HLM % rem. @ 1 hr” value in data set [5] came out at 95%. In addition, in data set [6], the “RLM % rem. @ 1 hr” value was 76.6%.

As usually defined, the bioavailability is the share of a dose that reaches the circulation, judged against a reference dose that is usually intravenous. As usually defined, the Ki is a dissociation constant, usually derived from enzyme kinetics or from competition with a known ligand.
